The source of these data is US6355644B1, “Benzylpiperazinyl-indolinylethanones” (Neurogen Corporation, priority 1999, dated 2002).

pKi: −log10 of the molar value.

The target of assay [1] is T1, dopamine D4 receptor (Homo sapiens, UniProt P21917).
T1 sequence (P21917 1-419): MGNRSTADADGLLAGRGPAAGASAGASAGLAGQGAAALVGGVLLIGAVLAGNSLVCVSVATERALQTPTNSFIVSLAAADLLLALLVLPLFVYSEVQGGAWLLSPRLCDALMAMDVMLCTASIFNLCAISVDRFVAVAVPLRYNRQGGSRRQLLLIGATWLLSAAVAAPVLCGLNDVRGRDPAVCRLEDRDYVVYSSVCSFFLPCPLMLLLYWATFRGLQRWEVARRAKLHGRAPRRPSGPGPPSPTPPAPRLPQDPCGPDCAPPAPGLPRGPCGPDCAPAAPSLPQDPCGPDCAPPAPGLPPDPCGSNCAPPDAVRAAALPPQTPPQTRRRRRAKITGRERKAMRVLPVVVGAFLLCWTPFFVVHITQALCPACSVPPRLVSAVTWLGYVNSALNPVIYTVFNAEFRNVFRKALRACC
Nature of the assay: D4 receptor binding assay (3H-YM 09151-2 displacement). The conditions noted are these: CHO cells recombinantly expressing human D4; 0.1 nM 3H-YM 09151-2; 25° C. As to the method:
(§1) Determination of D2 and D4 Receptor Binding Activity
(§2) The following assay is used for determining the binding affinity of compounds to dopamine D4 and D2 receptors.
(§3) Pellets of Chinese hamster ovary (CHO) cells containing recombinantly expressing primate D2, human D4 or […] receptors are used for the assays. The sample is homogenized in 100 volumes (w/vol) of 0.05 M Tris HCl buffer containing 120 mM NaCl, 5 mM MgCl2 and 1 mM EDTA at 4° C. and pH 7.4. The sample is then centrifuged at 30,000×g, resuspended and rehomogenized. The sample is then recentrifuged at 30,000×g, the supernatant is removed and the final tissue sample is frozen until it is needed. The tissue is resuspended 1:20 (wt/vol) in 0.05 M Tris HCl buffer containing 120 mM NaCl.

The target in assay [2] is dopamine D2 receptor (Chlorocebus aethiops, UniProt P52702). In words: D2 receptor binding assay (3H-YM 09151-2 displacement). The conditions noted are these: CHO cells recombinantly expressing primate D2; 0.1 nM 3H-YM 09151-2; 25° C. The method, then:
as §1, §2, §3

dopamine D2 receptor, sequence (P52702 whole entry): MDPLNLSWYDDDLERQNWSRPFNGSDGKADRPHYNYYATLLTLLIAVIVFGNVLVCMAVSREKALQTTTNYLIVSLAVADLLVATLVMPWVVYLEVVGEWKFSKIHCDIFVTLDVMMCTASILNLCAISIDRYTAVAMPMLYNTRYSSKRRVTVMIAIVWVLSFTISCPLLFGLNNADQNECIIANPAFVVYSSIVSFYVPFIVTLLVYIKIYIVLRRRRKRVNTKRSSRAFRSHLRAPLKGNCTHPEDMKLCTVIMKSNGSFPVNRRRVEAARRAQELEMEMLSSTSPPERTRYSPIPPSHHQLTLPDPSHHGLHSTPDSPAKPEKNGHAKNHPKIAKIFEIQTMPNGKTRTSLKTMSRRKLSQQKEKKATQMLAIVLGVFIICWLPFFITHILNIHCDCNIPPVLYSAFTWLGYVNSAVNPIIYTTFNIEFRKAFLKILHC

Regarding `C=C[C@@H]1Cc2ccccc2N1C(=O)CN1CCN(Cc2ccc(Cl)cc2)CC1` [Compound 1l], in assay [1], the negative logarithm of the Ki (pKi) was 8.30.

Turning to `O=C(CN1CCN(Cc2ccc(Cl)cc2)CC1)N1c2ccccc2CC1CO` (centres unmarked) [Compound 1j], in assay [2], the pKi was 5.49.

On to `Cc1ccc(CN2CCN(CC(=O)N3c4ccccc4[C@H](C)[C@@H]3C)CC2)cc1` [Compound 1d], for which the pKi in assay [2] was 6.33; in assay [1] it was 7.15.

Regarding `COc1ccc(Cl)cc1CN1CCN(CC(=O)N2c3ccccc3C(C)C2C)CC1` (centres unmarked) [Compound 1e], the pKi is 6.89 in assay [2] and 7.66 in assay [1].

As for `Cc1ccc(CN2CCN(CC(=O)N3CC(C)c4ccccc43)CC2)cc1` (centres unmarked) [Compound 1b], the pKi was 5.58 in assay [2] and 7.03 in assay [1].

As for `Cc1ccc(CN2CCN(CC(=O)N3c4ccccc4[C@@H](C)[C@H]3C)CC2)cc1` [Compound 1c], the negative logarithm of the Ki (pKi) in assay [2] is 6.73; in assay [1], 8.70.

`O=C(CN1CCN(Cc2ccc(Cl)cc2)CC1)N1c2ccccc2C[C@H]1CF` [Compound 1m]: in assay [2], the pKi was 5.96.

`COC(=O)C1Cc2ccccc2N1C(=O)CN1CCN(Cc2ccc(Cl)cc2)CC1` (centres unmarked) [Compound 1g]: in assay [1], the pKi is 8.30.

In the case of `Cc1ccc(CN2CCN(CC(=O)N3c4ccccc4[C@H]4CCCC[C@H]43)CC2)cc1` (relative stereo) [Compound 1o, 1-[(4b,8a-cis-5,6,7,8,9,4b,8a-heptahydro-4aH-carbazol-9-yl)ethyl]-2-{4-[(4-methylphenyl)methyl]piperazinyl}ethan-1-one], the pKi in assay [2] is 6.70; in assay [1], 7.96.
